The text below walks through data of ChEMBL document CHEMBL1201862, “PubChem BioAssay data set” (2004).

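Interpolation was linear, between the two tested concentrations surrounding the appropriate level; five concentrations were tested over 48 hours in 96-well plates. GI50: concentration for 50% inhibition of growth.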 The source made the active and inactive calls. No stated cut-off is given here; in the data, active = GI50 up to about 1.1 µM and inactive = higher.

Test systems include 786-0; CAKI-1; CCRF-CEM; DU-145; HCT-116; HOP-92; HT-29; Hs-578T; IGROV-1; KM-20L2; OVCAR-3; OVCAR-5; RPMI-8226; SK-MEL-2; SNB-75; SNB-78; T47D; U-251; UACC-62; XF498.
Common to all, as to assay: NCI anticancer screen, dose series, 48 h

For the molecule `COc1ccccc1C(=O)N(Cc1ccccc1)c1ccc(Cl)c(C(=O)OC(C)C)c1`, the GI50 with 786-0 is 25.9 µM (inactive); in the experiment on CAKI-1, 12.3 µM (inactive); in the experiment on CCRF-CEM, 35.5 µM (inactive); in the experiment with DU-145, 32.4 µM (inactive); in the experiment with HCT-116 it was 13.7 µM (inactive); in the experiment on HOP-92 it was 6.67 µM (inactive). In addition, the GI50 is 16.6 µM (inactive) in the experiment on HT-29; 61.1 µM (inactive) with Hs-578T; 25.8 µM (inactive) in the experiment on IGROV-1; 30.3 µM (inactive) in the experiment with KM-20L2; 17.7 µM (inactive) in the experiment with OVCAR-3; > 63.1 µM (inactive) in the experiment with OVCAR-5. In addition, the GI50 was 5.69 µM (inactive) in the experiment on RPMI-8226; 14.9 µM (inactive) with SK-MEL-2; 19.7 µM (inactive) in the experiment with SNB-75; 19.1 µM (inactive) with SNB-78; 5.52 µM (inactive) in the experiment on T47D; 36.6 µM (inactive) in the experiment with U-251. For the same molecule, the GI50 in the experiment with UACC-62 is 19.8 µM (inactive); in the experiment on XF498, 14.2 µM (inactive).
Regarding `COC1=C(N=[N+]=[N-])C(=O)c2ncccc2C1=O`, the GI50 in the experiment with 786-0 was 8.79 µM (inactive); in the experiment on CAKI-1, 5.58 µM (inactive); with CCRF-CEM it was 0.401 µM (active); in the experiment on DU-145, 20.8 µM (inactive); in the experiment with HCT-116, 2.65 µM (inactive); in the experiment with HOP-92, 1.29 µM (inactive). Also, the GI50 is 18.4 µM (inactive) in the experiment on HT-29; 18.5 µM (inactive) in the experiment on Hs-578T; 5.38 µM (inactive) with IGROV-1; 18.5 µM (inactive) in the experiment on KM-20L2; 5.57 µM (inactive) in the experiment on OVCAR-3; 19.5 µM (inactive) with OVCAR-5. Also, the GI50 in the experiment with RPMI-8226 is 1.88 µM (inactive); in the experiment on SK-MEL-2 it was 18.6 µM (inactive); in the experiment with SNB-75 it was 13.1 µM (inactive); in the experiment on SNB-78 it was 5.7 µM (inactive); with T47D it was 2.13 µM (inactive); in the experiment with U-251 it was 14.6 µM (inactive). The figures for the GI50 with UACC-62 and with XF498 were 7.82 µM (inactive) and 4.74 µM (inactive), respectively.
As to `COc1ccc(C2=NNC(=O)OC2c2ccccc2)cc1` (configuration not stated), the GI50 was > 100 µM (inactive) with 786-0; 92.3 µM (inactive) with CAKI-1; 48.3 µM (inactive) in the experiment on CCRF-CEM; > 100 µM (inactive) in the experiment with HCT-116; 43.6 µM (inactive) in the experiment with HOP-92; 38 µM (inactive) in the experiment on HT-29. Besides, the GI50 with IGROV-1 is > 100 µM (inactive); in the experiment on KM-20L2 it was 41.2 µM (inactive); in the experiment on OVCAR-3, 81.8 µM (inactive); in the experiment with OVCAR-5 it was > 100 µM (inactive); in the experiment on RPMI-8226 it was > 100 µM (inactive); in the experiment with SK-MEL-2, 36.1 µM (inactive). In addition, the GI50 in the experiment on SNB-75 was 28.1 µM (inactive); in the experiment with SNB-78, 95.7 µM (inactive); in the experiment on U-251 it was > 100 µM (inactive); with UACC-62 it was 59.2 µM (inactive); with XF498, 74 µM (inactive).
